Data from patent US9549932B2, “2-(morpholin-4-yl)-1,7-naphthyridines” (BAYER PHARMA AKTIENGESELLSCHAFT, priority 2014, dated 2017).

target: full-length human ATR protein (Homo sapiens (Human), UniProt Q13535); test: Binding assay ATR (TR-FRET tracer displacement); conditions: tracer A, TR-FRET; read-out: ATR binding (tracer A) IC50
In short: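 Full-length human GST-ATR co-purified with ATRIP, pre-complexed 30 min at 22 °C with anti-GST-Tb antibody, then pre-bound with compound 10 min. Tracer A or B added (2 µl of 100 nM solution), 30 min at 22 °C.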

Sequence of full-length human ATR protein (Q13535 other isoform, or with tags, fused parts or gaps): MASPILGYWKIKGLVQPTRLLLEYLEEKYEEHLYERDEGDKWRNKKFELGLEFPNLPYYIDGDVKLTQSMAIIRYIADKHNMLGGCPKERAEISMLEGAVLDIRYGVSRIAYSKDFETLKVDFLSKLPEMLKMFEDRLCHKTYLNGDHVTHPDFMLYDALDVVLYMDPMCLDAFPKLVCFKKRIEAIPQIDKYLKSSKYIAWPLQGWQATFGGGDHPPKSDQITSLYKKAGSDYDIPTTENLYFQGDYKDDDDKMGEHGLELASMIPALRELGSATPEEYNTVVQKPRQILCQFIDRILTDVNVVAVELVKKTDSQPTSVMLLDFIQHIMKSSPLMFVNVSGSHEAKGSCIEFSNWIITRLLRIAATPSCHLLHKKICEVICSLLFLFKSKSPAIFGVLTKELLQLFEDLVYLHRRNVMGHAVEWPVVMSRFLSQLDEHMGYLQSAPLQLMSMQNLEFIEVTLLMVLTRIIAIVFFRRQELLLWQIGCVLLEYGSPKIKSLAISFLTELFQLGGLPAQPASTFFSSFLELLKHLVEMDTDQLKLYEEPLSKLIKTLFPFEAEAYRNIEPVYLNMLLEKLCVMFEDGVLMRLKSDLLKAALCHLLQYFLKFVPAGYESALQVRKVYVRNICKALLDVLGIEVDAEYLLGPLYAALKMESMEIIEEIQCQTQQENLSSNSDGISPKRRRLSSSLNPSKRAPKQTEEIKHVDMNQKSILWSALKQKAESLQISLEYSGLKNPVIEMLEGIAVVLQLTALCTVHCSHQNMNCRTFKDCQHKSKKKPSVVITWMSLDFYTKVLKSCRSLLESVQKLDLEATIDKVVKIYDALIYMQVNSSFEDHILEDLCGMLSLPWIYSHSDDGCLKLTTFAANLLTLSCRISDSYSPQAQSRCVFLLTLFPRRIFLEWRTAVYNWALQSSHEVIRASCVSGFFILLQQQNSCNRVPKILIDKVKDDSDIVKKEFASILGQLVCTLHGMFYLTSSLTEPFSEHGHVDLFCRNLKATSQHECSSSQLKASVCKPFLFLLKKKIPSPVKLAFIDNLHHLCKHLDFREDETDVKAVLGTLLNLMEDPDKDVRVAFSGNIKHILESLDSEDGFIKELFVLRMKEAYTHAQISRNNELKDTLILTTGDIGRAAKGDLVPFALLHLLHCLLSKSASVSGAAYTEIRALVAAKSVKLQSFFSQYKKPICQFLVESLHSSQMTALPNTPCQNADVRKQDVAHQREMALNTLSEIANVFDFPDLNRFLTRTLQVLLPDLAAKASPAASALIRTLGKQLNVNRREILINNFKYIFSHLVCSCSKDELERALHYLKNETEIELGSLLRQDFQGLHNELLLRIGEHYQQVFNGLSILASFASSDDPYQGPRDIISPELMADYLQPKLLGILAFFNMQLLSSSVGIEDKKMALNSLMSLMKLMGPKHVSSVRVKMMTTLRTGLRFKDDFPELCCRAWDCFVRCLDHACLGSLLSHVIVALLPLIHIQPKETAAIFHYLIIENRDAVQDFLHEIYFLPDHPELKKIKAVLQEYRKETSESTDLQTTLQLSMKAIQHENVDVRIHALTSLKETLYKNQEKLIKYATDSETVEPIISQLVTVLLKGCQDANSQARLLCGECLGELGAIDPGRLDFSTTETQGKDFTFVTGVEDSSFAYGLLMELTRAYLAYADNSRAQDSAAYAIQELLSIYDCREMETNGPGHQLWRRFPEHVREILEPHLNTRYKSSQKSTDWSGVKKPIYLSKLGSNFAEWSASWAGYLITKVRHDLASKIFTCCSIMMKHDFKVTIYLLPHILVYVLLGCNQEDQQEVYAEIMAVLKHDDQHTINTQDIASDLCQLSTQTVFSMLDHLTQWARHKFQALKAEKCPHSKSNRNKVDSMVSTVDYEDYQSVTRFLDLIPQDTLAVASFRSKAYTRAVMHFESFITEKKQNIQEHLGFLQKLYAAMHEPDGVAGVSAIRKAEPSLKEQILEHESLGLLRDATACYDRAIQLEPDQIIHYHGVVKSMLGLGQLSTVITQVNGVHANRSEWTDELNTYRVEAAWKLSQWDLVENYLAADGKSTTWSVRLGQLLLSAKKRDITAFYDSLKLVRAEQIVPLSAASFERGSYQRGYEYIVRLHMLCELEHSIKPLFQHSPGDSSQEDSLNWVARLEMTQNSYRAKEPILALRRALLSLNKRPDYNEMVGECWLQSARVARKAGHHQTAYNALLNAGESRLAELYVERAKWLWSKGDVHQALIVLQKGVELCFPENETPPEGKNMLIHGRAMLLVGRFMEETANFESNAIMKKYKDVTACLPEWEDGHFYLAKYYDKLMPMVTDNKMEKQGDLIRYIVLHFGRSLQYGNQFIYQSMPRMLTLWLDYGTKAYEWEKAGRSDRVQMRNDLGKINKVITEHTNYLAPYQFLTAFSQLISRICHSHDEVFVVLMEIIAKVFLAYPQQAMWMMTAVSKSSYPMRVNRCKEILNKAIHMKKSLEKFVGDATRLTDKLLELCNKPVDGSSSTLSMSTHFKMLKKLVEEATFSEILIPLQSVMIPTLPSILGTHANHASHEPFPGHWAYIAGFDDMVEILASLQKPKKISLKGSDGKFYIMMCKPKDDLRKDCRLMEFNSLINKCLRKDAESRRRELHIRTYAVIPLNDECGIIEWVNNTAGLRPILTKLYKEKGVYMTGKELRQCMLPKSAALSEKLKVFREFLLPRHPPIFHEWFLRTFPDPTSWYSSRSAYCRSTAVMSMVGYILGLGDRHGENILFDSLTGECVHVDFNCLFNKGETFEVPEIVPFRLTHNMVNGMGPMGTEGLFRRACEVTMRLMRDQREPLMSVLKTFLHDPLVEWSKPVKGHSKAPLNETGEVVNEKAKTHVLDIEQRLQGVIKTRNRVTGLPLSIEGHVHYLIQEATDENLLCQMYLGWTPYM
Sequence of full-length human ATR protein (Q8WXE1 other isoform, or with tags, fused parts or gaps partner): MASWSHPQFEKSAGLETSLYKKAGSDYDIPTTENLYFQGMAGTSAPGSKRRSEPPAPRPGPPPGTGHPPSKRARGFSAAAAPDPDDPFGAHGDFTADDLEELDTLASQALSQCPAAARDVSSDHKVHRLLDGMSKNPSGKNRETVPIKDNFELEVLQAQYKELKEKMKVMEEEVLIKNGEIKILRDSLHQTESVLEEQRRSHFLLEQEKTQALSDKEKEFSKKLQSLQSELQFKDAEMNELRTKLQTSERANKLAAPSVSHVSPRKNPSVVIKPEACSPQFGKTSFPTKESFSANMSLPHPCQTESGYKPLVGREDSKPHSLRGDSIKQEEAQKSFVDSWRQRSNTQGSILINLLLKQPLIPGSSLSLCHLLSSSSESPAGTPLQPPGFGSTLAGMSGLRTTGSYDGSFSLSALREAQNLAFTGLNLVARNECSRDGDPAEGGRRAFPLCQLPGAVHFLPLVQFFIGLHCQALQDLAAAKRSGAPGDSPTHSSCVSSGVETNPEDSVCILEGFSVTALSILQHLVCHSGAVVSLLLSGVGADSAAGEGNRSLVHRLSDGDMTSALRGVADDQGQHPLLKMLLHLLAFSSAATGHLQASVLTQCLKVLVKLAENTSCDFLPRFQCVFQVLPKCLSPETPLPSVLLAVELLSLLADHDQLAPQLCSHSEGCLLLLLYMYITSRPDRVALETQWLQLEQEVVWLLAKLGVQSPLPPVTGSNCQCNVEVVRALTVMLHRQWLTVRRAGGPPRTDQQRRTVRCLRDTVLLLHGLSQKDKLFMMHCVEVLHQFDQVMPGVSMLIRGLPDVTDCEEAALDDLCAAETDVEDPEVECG

SMILES | IC50 [nM]
Fc1ccc(-c2cc(N3CCOCC3)nc3c(-c4ccn[nH]4)nccc23)cc1 [Example 314, 4-(4-fluorophenyl)-2-(morpholin-4-yl)-8-(1H-pyrazol-5-yl)-1,7-naphthyridine] | 67.9
C[C@@H]1COCCN1c1cc(N(C)c2ccc(F)cc2)c2ccnc(-c3ccn[nH]3)c2n1 [Example 87, N-(4-fluorophenyl)-N-methyl-2-[(3R)-3-methylmorpholin-4-yl]-8-(1H-pyrazol-5-yl)-1,7-naphthyridin-4-amine] | 8.71
Cc1ccc(-c2cc(N3CCOC[C@H]3C)nc3c(-c4ccn[nH]4)nccc23)c(F)n1 [Example 93, 4-(2-fluoro-6-methylpyridin-3-yl)-2-[(3R)-3-methylmorpholin-4-yl]-8-(1H-pyrazol-5-yl)-1,7-naphthyridine] | 10.9
CC(C)n1nccc1-c1cc(N2CCOC[C@H]2C)nc2c(-c3ccn[nH]3)nccc12 [Example 124, 4-(1-isopropyl-1H-pyrazol-5-yl)-2-[(3R)-3-methylmorpholin-4-yl]-8-(1H-pyrazol-5-yl)-1,7-naphthyridine] | 13.6
Nc1ccc(-c2cc(N3CCOCC3)nc3c(-c4ccn[nH]4)nccc23)cn1 [Example 386, 5-[2-(morpholin-4-yl)-8-(1H-pyrazol-5-yl)-1,7-naphthyridin-4-yl]pyridin-2-amine] | 173
c1ccc(-c2ccc(-c3cc(N4CCOCC4)nc4c(-c5ccn[nH]5)nccc34)cc2)cc1 [Example 331, 4-(biphenyl-4-yl)-2-(morpholin-4-yl)-8-(1H-pyrazol-5-yl)-1,7-naphthyridine] | 376
CC(C)C(C)(O)c1cc(N2CCOC[C@H]2C)nc2c(-c3ccn[nH]3)nccc12 (stereo partly drawn) [Example 281, 3-methyl-2-{2-[(3R)-3-methylmorpholin-4-yl]-8-(1H-pyrazol-5-yl)-1,7-naphthyridin-4-yl}butan-2-ol] | 13.6
C[C@@H]1COCCN1c1cc(-c2cccc(F)n2)c2ccnc(-c3ccn[nH]3)c2n1 [Example 152, 4-(6-fluoropyridin-2-yl)-2-[(3R)-3-methylmorpholin-4-yl]-8-(1H-pyrazol-5-yl)-1,7-naphthyridine] | 51.8
COc1cc(N2CCOC[C@H]2C)nc2c(-c3cc[nH]n3)nccc12 [Example 53, 4-methoxy-2-((R)-3-methylmorpholin-4-yl)-8-(1H-pyrazol-3-yl)-[1,7]naphthyridine] | 192
C[C@@H]1COCCN1c1cc(-c2ccsc2Cl)c2ccnc(-c3ccn[nH]3)c2n1 [Example 236, 4-(2-chlorothiophen-3-yl)-2-[(3R)-3-methylmorpholin-4-yl]-8-(1H-pyrazol-5-yl)-1,7-naphthyridine] | 28.2
O=S(=O)(c1ccccc1)c1cc(N2CCOCC2)nc2c(-c3ccn[nH]3)nccc12 [Example 198, 2-(morpholin-4-yl)-4-(phenylsulfonyl)-8-(1H-pyrazol-5-yl)-1,7-naphthyridine] | 293
c1csc(-c2cc(N3CCOCC3)nc3c(-c4ccn[nH]4)nccc23)c1 [Example 371, 2-(morpholin-4-yl)-8-(1H-pyrazol-5-yl)-4-(thiophen-2-yl)-1,7-naphthyridine] | 122
O=S1(=O)CCC12CN(c1cc(N3CCOCC3)nc3c(-c4ccn[nH]4)nccc13)C2 [Example 425, 4-(1,1-dioxido-1-thia-6-azaspiro[3.3]hept-6-yl)-2-(morpholin-4-yl)-8-(1H-pyrazol-5-yl)-1,7-naphthyridine] | 1000
Clc1cc(Cl)cc(-c2cc(N3CCOCC3)nc3c(-c4ccn[nH]4)nccc23)c1 [Example 344, 4-(3,5-dichlorophenyl)-2-(morpholin-4-yl)-8-(1H-pyrazol-5-yl)-1,7-naphthyridine] | 174
C[C@@H]1COCCN1c1cc(OCCCNC(=O)OC(C)(C)C)c2ccnc(-c3ccn[nH]3)c2n1 [Example 54, Tert-butyl [3-({2-[(3R)-3-methylmorpholin-4-yl]-8-(1H-pyrazol-5-yl)-1,7-naphthyridin-4-yl}oxy)propyl]carbamate] | 288
C[C@@H]1COCCN1c1cc(-c2sccc2Cl)c2ccnc(-c3ccn[nH]3)c2n1 [Example 102, 4-(3-chloro-2-thienyl)-2-[(3R)-3-methylmorpholin-4-yl]-8-(1H-pyrazol-5-yl)-1,7-naphthyridine] | 12.3
Cc1cc(COc2cc(N3CCOCC3)nc3c(-c4ccn[nH]4)nccc23)on1 [Example 48, 4-[(3-methyl-1,2-oxazol-5-yl)methoxy]-2-(morpholin-4-yl)-8-(1H-pyrazol-5-yl)-1,7-naphthyridine] | 161
CN(C)c1cc(N2CCOCC2)nc2c(-c3ccn[nH]3)nccc12 [Example 206, N,N-dimethyl-2-(morpholin-4-yl)-8-(1H-pyrazol-5-yl)-1,7-naphthyridin-4-amine] | 404
CC(C)CN(C)c1cc(N2CCOCC2)nc2c(-c3ccn[nH]3)nccc12 [Example 423, N-methyl-N-(2-methylpropyl)-2-(morpholin-4-yl)-8-(1H-pyrazol-5-yl)-1,7-naphthyridin-4-amine] | 83.9

SMILES | IC50 [nM]
CCn1nc(C(F)(F)F)cc1-c1cc(N2CCOC[C@H]2C)nc2c(-c3ccn[nH]3)nccc12 [Example 119, 4-[1-ethyl-3-(trifluoromethyl)-1H-pyrazol-5-yl]-2-[(3R)-3-methylmorpholin-4-yl]-8-(1H-pyrazol-5-yl)-1,7-naphthyridine] | 11.7
C[C@@H]1COCCN1c1cc(-c2c[nH]nc2C(F)(F)F)c2ccnc(-c3ccn[nH]3)c2n1 [Example 252, 2-[(3R)-3-methylmorpholin-4-yl]-8-(1H-pyrazol-5-yl)-4-[3-(trifluoromethyl)-1H-pyrazol-4-yl]-1,7-naphthyridine] | 6.45
Cc1cc(-c2cc(N3CCOC[C@H]3C)nc3c(-c4ccn[nH]4)nccc23)cnc1C [Example 232, 4-(5,6-dimethylpyridin-3-yl)-2-[(3R)-3-methylmorpholin-4-yl]-8-(1H-pyrazol-5-yl)-1,7-naphthyridine] | 39.1
CC1CCN(c2cc(N3CCOCC3)nc3c(-c4ccn[nH]4)nccc23)CC1 [Example 415, 4-(4-methylpiperidin-1-yl)-2-(morpholin-4-yl)-8-(1H-pyrazol-5-yl)-1,7-naphthyridine] | 32.7
C[C@@H]1COCCN1c1cc(-c2cnc(S(C)(=O)=O)c(F)c2)c2ccnc(-c3ccn[nH]3)c2n1 [Example 147, 4-[5-fluoro-6-(methylsulfonyl)pyridin-3-yl]-2-[(3R)-3-methylmorpholin-4-yl]-8-(1H-pyrazol-5-yl)-1,7-naphthyridine] | 45.4
COC1CCN(c2cc(N3CCOCC3)nc3c(-c4ccn[nH]4)nccc23)CC1 [Example 430, 4-(4-methoxypiperidin-1-yl)-2-(morpholin-4-yl)-8-(1H-pyrazol-5-yl)-1,7-naphthyridine] | 61.3
FC(F)(F)c1ccc(-c2cc(N3CCOCC3)nc3c(-c4ccn[nH]4)nccc23)cc1 [Example 302, 2-(morpholin-4-yl)-8-(1H-pyrazol-5-yl)-4-[4-(trifluoromethyl)phenyl]-1,7-naphthyridine] | 188
Nc1cccc(-c2cc(N3CCOCC3)nc3c(-c4ccn[nH]4)nccc23)c1 [Example 335, 3-[2-(morpholin-4-yl)-8-(1H-pyrazol-5-yl)-1,7-naphthyridin-4-yl]aniline] | 66.2
Fc1ccc(-c2cc(N3CCOCC3)nc3c(-c4ccn[nH]4)nccc23)cn1 [Example 360, 4-(6-fluoropyridin-3-yl)-2-(morpholin-4-yl)-8-(1H-pyrazol-5-yl)-1,7-naphthyridine] | 93.8
Cc1cccc(-c2cc(N3CCOC[C@H]3C)nc3c(-c4ccn[nH]4)nccc23)n1 [Example 164, 2-[(3R)-3-methylmorpholin-4-yl]-4-(6-methylpyridin-2-yl)-8-(1H-pyrazol-5-yl)-1,7-naphthyridine] | 161
NC(=O)c1cc(N2CCOCC2)nc2c(-c3cc[nH]n3)nccc12 [Example 36, 2-morpholin-4-yl-8-(1H-pyrazol-3-yl)-[1,7]naphthyridine-4-carboxamide] | 1500
Cc1csc(-c2cc(N3CCOC[C@H]3C)nc3c(-c4ccn[nH]4)nccc23)c1 [Example 239, 2-[(3R)-3-methylmorpholin-4-yl]-4-(4-methylthiophen-2-yl)-8-(1H-pyrazol-5-yl)-1,7-naphthyridine] | 20.3
COc1cccc(-c2cc(N3CCOCC3)nc3c(-c4ccn[nH]4)nccc23)c1F [Example 317, 4-(2-fluoro-3-methoxyphenyl)-2-(morpholin-4-yl)-8-(1H-pyrazol-5-yl)-1,7-naphthyridine] | 66.5
COc1ccc(Sc2cc(N3CCOC[C@H]3C)nc3c(-c4ccn[nH]4)nccc23)cc1 [Example 222] | 50.2
OC[C@H]1CCCN(c2cc(N3CCOCC3)nc3c(-c4ccn[nH]4)nccc23)C1 (stereo in doubt) [Example 437, {1-[2-(morpholin-4-yl)-8-(1H-pyrazol-5-yl)-1,7-naphthyridin-4-yl]piperidin-3-yl}methanol] | 118
Cc1ncccc1-c1cc(N2CCOC[C@H]2C)nc2c(-c3ccn[nH]3)nccc12 [Example 218, 2-[(3R)-3-methylmorpholin-4-yl]-4-(2-methylpyridin-3-yl)-8-(1H-pyrazol-5-yl)-1,7-naphthyridine] | 11.8
C[C@@H]1COCCN1c1cc(C2CCCN(C)C2)c2ccnc(-c3ccn[nH]3)c2n1 (stereo partly drawn) [Example 244, 2-[(3R)-3-methylmorpholin-4-yl]-4-[1-methylpiperidin-3-yl]-8-(1H-pyrazol-5-yl)-1,7-naphthyridine] | 159
CN(c1ccccc1F)c1cc(N2CCOCC2)nc2c(-c3ccn[nH]3)nccc12 [Example 427, N-(2-fluorophenyl)-N-methyl-2-(morpholin-4-yl)-8-(1H-pyrazol-5-yl)-1,7-naphthyridin-4-amine] | 112
CC(C)Cn1nccc1-c1cc(N2CCOC[C@H]2C)nc2c(-c3ccn[nH]3)nccc12 [Example 146, 4-(1-isobutyl-1H-pyrazol-5-yl)-2-[(3R)-3-methylmorpholin-4-yl]-8-(1H-pyrazol-5-yl)-1,7-naphthyridine] | 35.7

same assay, conditions: tracer B, TR-FRET; read-out: ATR binding (tracer B) IC50

SMILES | IC50 [nM]
COc1cc(N2CCOC[C@H]2C)nc2c(-c3cc[nH]n3)nccc12 [Example 53, 4-methoxy-2-((R)-3-methylmorpholin-4-yl)-8-(1H-pyrazol-3-yl)-[1,7]naphthyridine] | 63.5
C[C@@H]1COCCN1c1cc(OCCCNC(=O)OC(C)(C)C)c2ccnc(-c3ccn[nH]3)c2n1 [Example 54, Tert-butyl [3-({2-[(3R)-3-methylmorpholin-4-yl]-8-(1H-pyrazol-5-yl)-1,7-naphthyridin-4-yl}oxy)propyl]carbamate] | 129
